According to patent publication US20100196907A1, “MARKERS TO PREDICT AND MONITOR RESPONSE TO AURORA KINASE B INHIBITOR THERAPY” (ABBOTT LABORATORIES, priority 2009, published 2010):

Experiments:
SW620 cells = experiment: histone H3 phosphorylation immunoblot, SW620; type: cell-based, human
Procedure: (§1) SW620 and SW620^ABCB1/3 cells were washed and allowed to grow in drug-free medium overnight. […] The lysates were then probe-sonicated for 10 seconds then clarified by centrifugation at 15,000 g for 15 minutes at 4° C. After treatment with SDS-sample buffer, protein extracts were resolved on NuPAGE Bis-Tris 4-12% gels (Invitrogen (Carlsbad, Calif.)). Samples were electrotransferred to PVDF membranes (Invitrogen (Carlsbad, Calif.)), incubated with primary antibody overnight, and developed using Pierce Dura-Signal chemiluminescence reagents (Pierce, Rockford, Ill.), or Odyssey infrared imaging system from LI-COR Biosciences (Lincoln, Nebr.).

SW620^ABCB1/3 cells = experiment: intracellular drug concentration by LC-MS; type: in vitro ADME, human; conditions: 1 μM for 4 hours
Procedure: SW620 and SW620^ABCB1/3 cells were washed and allowed to grow in drug-free medium overnight. […] Cytosolic drug accumulation was determined by LC-MS analysis. Briefly, cells were rinsed once with PBS and extracted in cell lysis buffer. The medium, PBS wash, and cell lysate were treated with 2 volumes of acidified MeOH. Crude whole-cell lysates were then clarified by centrifugation at 15000 g for 15 minutes at 4° C. yielding an insoluble cell pellet and cytosol. The insoluble cell pellet was diluted 1:10 with 50% acetonitrile and centrifuged at 11,000 g for 5 minutes.

SW620^ABCB1/3 tumors = experiment: intratumor pharmacokinetics, SW620^ABCB1/3 xenografts; type: in vivo, mice
Procedure: C.B.-17 scid-bg (scid-bg) or C.B.-17 scid (scid) mice were obtained from Charles River Laboratories (Wilmington, Mass., USA) at 5-6 weeks of age and used for studies when greater than 8 weeks of age and/or about 20 grams in size. All animal studies were conducted in a specific pathogen-free environment in accordance with the Internal Institutional Animal Care and Use Committee (IACUC), accredited by the American Association of Laboratory Animal Care under conditions that meet or exceed the standards set by the United States Department of Agriculture Animal Welfare Act, Public Health Service policy on humane care and use of animals and the NIH guide on laboratory animal welfare. Overt signs of dehydration, lack of grooming, lethargy, greater than 15% weight loss as well as tumor volume greater then 20% body weight were used to determine tumor end point. SW620 cell lines were obtained from the ATCC (Manassas, Va.) and cultured according to their recommendations without antibiotics and routinely tested for Mycoplasma and confirmed to be microbe-free by infectious microbe PCR amplification test (IMPACT; Missouri Research Animal Diagnostic Laboratory, Columbia, Mo.) prior to in vivo inoculation. […] Two bisecting diameters were measured with calipers and tumor volumes were estimated from the formula: (length×width^2)/2. […]

SW620 xenografts = experiment: tumor histone H3 phosphorylation, SW620 xenografts; type: in vivo, mice
Procedure: as §1, with “Nebr.). C.B.-17 scid-bg (scid-bg) or C.B.-17 scid (scid) mice were obtained from Charles River Laboratories (Wilmington, Mass., USA) at 5-6 weeks of age and used for studies when greater than 8 weeks of age and/or about 20 grams in size. […] Two bisecting diameters were measured with calipers and tumor volumes were estimated from the formula: (length×width^2)/2. […]” for “Nebr.).”

[1] = system: panel of 50 other kinases; conditions: cited from earlier work

## CCN(CCO)CCCOc1ccc2c(Nc3cc(CC(=O)Nc4cccc(F)c4)[nH]n3)ncnc2c1 [AZD1152 HQPA]
SW620 cells
  intrinsic potency (histone H3 phosphorylation): 0.02 µM
SW620^ABCB1/3 cells
  drug in the cytosol compared to parental SW620 cells: Significantly less drug
SW620^ABCB1/3 tumors; SW620^ABCB1/3 tumors, single i.p. 100 mg kg^−1
  period of tumor concentration above threshold: ~6 h
SW620^ABCB1/3 tumors; single IP administration, 24-hour period post-dose
  overall tumor AUC compared to the parental cohort: reduction in the overall tumor AUC
SW620 xenografts; SW620 xenografts, potency x fold loss in 50% (v/v) mouse plasma
  minimum threshold intratumor concentration to inhibit histone H3 phosphorylation: 0.1 µM
SW620 xenografts; parental SW620 xenografts, single dose 100 mg kg^−1 i.p.
  inhibition of Aurora B (histone H3 phosphorylation) in tumors: Sustained inhibition
[1]
  activity against a panel of 50 other kinases: inactive
